# Assay results: patent publication US7026326B2, “Substituted heterocyclic compounds and methods of use” (Amgen Inc., priority 2002, dated 2006)
# System: LPS induced TNF release
# Experiment: Lipopolysaccharide-Activated THP1 Cell TNF Production Assay
# Format: cell-based
# Settings: Homo sapiens, THP-1; THP1 cells, bacterial LPS, TNF-α secretion at 37° C. for 3 h
# Procedure: Lipopolysaccharide-Activated THP1 Cell TNF Production Assay
# THP1 cells are resuspended in fresh THP1 media (RPMI 1640, 10% heat-inactivated FBS, 1xPGS, 1XNEAA, plus 30 μM βME) at a concentration of 1E6/mL. One hundred microliters of cells per well are plated in a polystyrene 96-well tissue culture. One microgram per mL of bacterial LPS is prepared in THP1 media and is transferred to the wells. Test compounds are dissolved in 100% DMSO and are serially diluted 3 fold in a polypropylene 96-well microtiter plate (drug plate). HI control and LO control wells contain only DMSO. One microliter of test compound from the drug plate followed by 10 μL of LPS are transferred to the cell plate. The treated cells are induced to synthesize and secrete TNF-α at 37° C. for 3 h. Forty microliters of conditioned media are transferred to a 96-well polypropylene plate containing 110 μL of ECL buffer (50 mM Tris-HCl pH 8.0, 100 mM NaCl, 0.05% Tween 20, 0.05% NaN3 and 1% FBS) supplemented with 0.44 nM MAB610 monoclonal Ab (R&D Systems), 0.34 nM ruthenylated AF210NA polyclonal Ab (R&D Systems) and […] sheep anti-mouse M280 Dynabeads (Dynal). After a 2 h incubation at room temperature with shaking, the reaction is read on the ECL M8 Instrument (IGEN Inc.). A low voltage is applied to the ruthenylated TNF-α immune complexes, which in the presence of TPA (the active component in Origlo), results in a cyclical redox reaction generating light at […]. The amount of secreted TNF-α in the presence of compound compared with that in the presence of DMSO vehicle alone (HI control) is calculated using the formula: % control (POC)=(cpd−average LO)/(average HI−average LO)*100. Data (consisting of POC and inhibitor concentration in μM) is fitted to a 4-parameter equation (y=A+((B−A)/(1+((x/C)^D))), where A is the minimum y (POC) value, B is the maximum y (POC), C is the x (cpd concentration) at the point of inflection and D is the slope factor) using a Levenburg-Marquardt non-linear regression algorithm.
row,IC50 [µM],Structure (SMILES)
1,≤ 20,CC(C)NC[C@H]1CCCN1c1nc(-c2ccncc2)c(-c2ccc(Cl)cc2)c(=O)n1C [Example 1]
2,≤ 20,"COC[C@@H]1CCCN1c1nc(-c2ccnc(N[C@@H](C)c3ccccc3)c2)c(-c2cccc(C)c2)c(=O)n1C [Example 10, 2-(2-Methoxymethyl-pyrrolidin-1-yl)-3-methyl-6-[2-(1-phenyl-ethylamino)-pyridin-4-yl]-5-m-tolyl-3H-pyrimidin-4-one]"
3,≤ 20,"CC(C)NC[C@H]1CCCN1c1nc(-c2ccncc2)c(-c2ccc3ccccc3c2)c(=O)n1C [Example 8, 2-[2-(Isopropylamino-methyl)-pyrrolidin-1-yl]-3-methyl-5-naphthalen-2-yl-6-pyridin-4-yl-3H-pyrimidin-4-one]"
4,≤ 20,"Cn1c(C2CCN(CCNC(=O)OC(C)(C)C)C2)cc(-c2ccncc2)c(-c2ccc3ccccc3c2)c1=O (centres unmarked) [Example 24, {2-[3-(1-Methyl-5-naphthalen-2-yl-6-oxo-1,6-dihydro-[4,4′]bipyridinyl-2-yl)-pyrrolidin-1-yl]-ethyl}-carbamic acid tert-butyl ester]"
5,≤ 20,"Cn1c(C2CCN(C[C@@H](Cc3ccccc3)NC(=O)OC(C)(C)C)CC2)cc(-c2ccncc2)c(-c2ccc3ccccc3c2)c1=O [Example 18, [(1R)-Benzyl-2-(1′-methyl-5′-naphthalen-2-yl-6′-oxo-3,4,5,6,1′,6′-hexahydro-2H-[4,2′;4′,4″]terpyridin-1-yl)-ethyl]-carbamic acid tert-butyl ester]"
6,≤ 20,"CC(C)N1CC(c2cc(-c3ccncc3)c(-c3ccc4ccccc4c3)c(=O)n2C)CC1CO (centres unmarked) [Example 16, 6-[5-(hydroxymethyl)-1-(methylethyl)pyrrolidin-3-yl]-1-methyl-3-(2-naphthyl)-4-(4-pyridyl)hydropyridin-2-one]"
7,≤ 20,"Cn1c(C2CCN(C[C@H](N)Cc3ccccc3)CC2)cc(-c2ccncc2)c(-c2ccc3ccccc3c2)c1=O [Example 19, 1-{(2R)-Amino-3-phenyl-propyl}-1′-methyl-5′-naphthalen-2-yl-1,2,3,4,5,6-hexahydro-1′H-[4,2′;4′,4″]terpyridin-6′-one]"
8,≤ 20,"CC(C)NC[C@H]1CCCN1c1nc(-c2ccncc2)c(-c2cccc(C3CC3)c2)c(=O)n1C [Example 6, 5-(3-Cyclopropyl-phenyl)-2-[2-(isopropylamino-methyl)-pyrrolidin-1-yl]-3-methyl-6-pyridin-4-yl-3H-pyrimidin-4-one]"
9,≤ 20,"Cn1c(C2CCN(CC(C)(C)O)CC2)cc(-c2ccncc2)c(-c2ccc3ccccc3c2)c1=O [Example 13, 1-(2-Hydroxy-2-methyl-propyl)-1′-methyl-5′-naphthalen-2-yl-1,2,3,4,5,6-hexahydro-1′H-[4,2′;4′,4″]terpyridin-6′-one]"
10,≤ 20,"CC(C)NC[C@H]1CCCN1c1cc(-c2ccncc2)c(-c2ccc3ccccc3c2)c(=O)n1C [Example 30, 6-[2-(Isopropylamino-methyl)-pyrrolidin-1-yl]-1-methyl-3-naphthalen-2-yl-1H-4[4,4′]bipyridinyl-2-one]"
11,≤ 20,"CC(C)N[C@@H](Cc1ccccc1)CN1CCC(c2cc(-c3ccncc3)c(-c3ccc4ccccc4c3)c(=O)n2C)CC1 [Example 23, 1-{(2S)-Isopropylamino-3-phenyl-propyl}-1′-methyl-5′-naphthalen-2-yl-1,2,3,4,5,6-hexahydro-1′H-[4,2′;4′,4″]terpyridin-6′-one]"
12,≤ 20,"Cn1c(N2CCCC2CO)cc(-c2ccncc2)c(-c2ccc(Cl)cc2)c1=O (centres unmarked) [Example 17, 3-(4-chlorophenyl)-6-[2-(hydroxymethyl)pyrrolidinyl]-1-methyl-4-(4-pyridyl)-hydropyridin-2-one]"
13,≤ 20,"COC[C@@H]1CCCN1c1nc(-c2ccnc(Cl)c2)c(-c2cccc(C)c2)c(=O)n1C [Example 9, 6-(2-Chloro-pyridin-4-yl)-2-(2-methoxymethyl-pyrrolidin-1-yl)-3-methyl-5-m-tolyl-3H-pyrimidin-4-one]"
14,≤ 20,"Cn1c(C2CCN(C[C@H](Cc3ccccc3)NC(=O)OC(C)(C)C)CC2)cc(-c2ccncc2)c(-c2ccc3ccccc3c2)c1=O [Example 21, [(1S)-Benzyl-2-(1′-methyl-5′-naphthalen-2-yl-6′-oxo-3,4,5,6,1′,6′-hexahydro-2H-[4,2′;4′,4″]terpyridin-1-yl)-ethyl]-carbamic acid tert-butyl ester]"
15,≤ 20,"C=Cc1cccc(-c2c(-c3ccncc3)nc(N3CCC[C@@H]3CNC(C)C)n(C)c2=O)c1 [Example 5, 2-[2-(Isopropylamino-methyl)-pyrrolidin-1-yl]-3-methyl-6-pyridin-4-yl-5-(3-vinyl-phenyl)-3H-pyrimidin-4-one]"
16,≤ 20,"Cn1c(C2CCN(C[C@@H](N)Cc3ccccc3)CC2)cc(-c2ccncc2)c(-c2ccc3ccccc3c2)c1=O [Example 22, 1-{(2S)-Amino-3-phenyl-propyl}-1′-methyl-5′-naphthalen-2-yl-1,2,3,4,5,6-hexahydro-1′H-[4,2′;4′,4″]terpyridin-6′-one]"
17,≤ 20,"CC(C)NC[C@H]1CCCN1c1nc(-c2ccncc2)c(-c2cccc(Br)c2)c(=O)n1C [Example 4, 5-(3-Bromo-phenyl)-2-[2-(isopropylamino-methyl)-pyrrolidin-1-yl]-3-methyl-6-pyridin-4-yl-3H-pyrimidin-4-one]"
18,≤ 20,"Cn1c(C2CCN(CC(C)(C)O)C2)cc(-c2ccncc2)c(-c2ccc3ccccc3c2)c1=O (centres unmarked) [Example 26, 6-[1-(2-Hydroxy-2-methyl-propyl)-pyrrolidin-3-yl]-1-methyl-3-naphthalen-2-yl-1H-[4,4′]bipyridinyl-2-one]"
19,≤ 20,"CC(O)CN1CCC(c2cc(-c3ccncc3)c(-c3ccc4ccccc4c3)c(=O)n2C)C1 (centres unmarked) [Example 25, 6-[1-(2-Hydroxy-propyl)-pyrrolidin-3-yl]-1-methyl-3-naphthalen-2-yl-1H-[4,4′]bipyridinyl-2-one]"
20,≤ 20,"CC(C)NCC1CCCN1c1cc(-c2ccncc2)c(-c2ccc(Cl)cc2)c(=O)n1C (centres unmarked) [Example 31, 3-(4-Chlorophenyl)-1-methyl-6-(2-{[(methylethyl)amino]methyl}pyrrolidinyl)-4-(4-pyridyl)hydropyridin-2-one]"
21,≤ 20,"CC(C)NCC1CCCN1c1cc(-c2ccncc2)c(-c2ccc3ccccc3c2)nn1 (centres unmarked) [Example 14, Isopropyl-[1-(6-naphthalen-2-yl-5-pyridin-4-yl-pyridazin-3-yl)-pyrrolidin-2-ylmethyl]-amine]"
22,≤ 20,CC(C)NC[C@@H]1CCCN1c1nc(-c2ccncc2)c(-c2ccc(Cl)cc2)c(=O)n1C [Example 2]
23,≤ 20,"C[C@@H](O)CN1CCC(c2cc(-c3ccncc3)c(-c3ccc4ccccc4c3)c(=O)n2C)CC1 [Example 11, 1-(2R-Hydroxy-propyl)-1′-methyl-5′-naphthalen-2-yl-1,2,3,4,5,6-hexahydro-1′H-[4,2′;4′,4″]terpyridin-6′-one]"
24,≤ 20,"Cc1cccc(-c2c(-c3ccncc3)nc(N3CCC[C@@H]3CNC(C)C)n(C)c2=O)c1 [Example 7, 2-[2-(Isopropylamino-methyl)-pyrrolidin-1-yl]-3-methyl-6-pyridin-4-yl-5-m-tolyl-3H-pyrimidin-4-one]"
25,≤ 20,"CC(C)NC[C@H]1CCCN1c1c(Cl)c(-c2ccncc2)c(-c2ccc3ccccc3c2)c(=O)n1C (stereo in doubt) [Example 29, 5-Chloro-6-[2-(isopropylamino-methyl)-pyrrolidin-1-yl]-1-methyl-3-naphthalen-2-yl-1H-[4,4′]bipyridinyl-2-one]"
26,≤ 20,"Cn1c(C2CNC(CO)C2)cc(-c2ccncc2)c(-c2ccc3ccccc3c2)c1=O (centres unmarked) [Example 15, 6-[5-(Hydroxymethyl)pyrrolidin-3-yl]-1-methyl-3-(2-naphthyl)-4-(4-pyridyl)-hydropyridin-2-one]"
27,≤ 20,"CC(C)N[C@H](Cc1ccccc1)CN1CCC(c2cc(-c3ccncc3)c(-c3ccc4ccccc4c3)c(=O)n2C)CC1 [Example 20, 1-{(2R)-Isopropylamino-3-phenyl-propyl}-1′-methyl-5′-naphthalen-2-yl-1,2,3,4,5,6-hexahydro-1′H-[4,2′;4′,4″]terpyridin-6′-one]"
28,≤ 20,"Cn1c(C2CCCN2CCNC(=O)OC(C)(C)C)cc(-c2ccncc2)c(-c2ccc3ccccc3c2)c1=O (centres unmarked) [Example 27, {2-[2-(1-Methyl-5-naphthalen-2-yl-6-oxo-1,6-dihydro-[4,4′]bipyridinyl-2-yl)-pyrrolidin-1-yl]-ethyl}-carbamic acid tert-butyl ester]"
29,≤ 20,"Cn1c(C2CCCN2CCN)cc(-c2ccncc2)c(-c2ccc3ccccc3c2)c1=O (centres unmarked) [Example 28, 6-[1-(2-Amino-ethyl)-pyrrolidin-2-yl]-1-methyl-3-naphthalen-2-yl-1H-[4,4′]bi-pyridinyl-2-one]"
